Experimental data as given in US8580519B2, “Use of plasma HSP90 related to malignancy” (University of Maryland, Baltimore, priority 2006, dated 2013).
Where two headings read alike, the source gives them in different places.

Columns and labels:
[1] = nude mice, days 1-4, 15-18 i.p.; cited from earlier work
[2] = preclinical toxicology studies; cited from earlier work
MEXF276L cells [3] = assay: Hsp90 isoforms and MMP2 in serum-free conditioned medium, Western blot; assay type: cell-based, human
Protocol: In addition, levels of matrix metalloprotease 2 (MMP2, FIG. 3B), an extracellular client protein of Hsp90α were analyzed.

MEXF276L cells [4] = assay: Immunofluorescence localization of Hsp90 isoforms α and β; assay type: cell-based, human; details: sensitive melanoma cells exposed to 17AAG, time course
Protocol: (§1) Cells were treated at the respective concentrations that cause total growth inhibition (TGI) (Burger et al., 2005). […] Co-localization of proteins results in the occurrence of orange to yellow colors in merged pictures. Bar=15 μm.

MEXF276L cells [5] = assay: Cell cycle distribution, apoptotic sub G1 fraction; assay type: cell-based, human; details: 17AAG at TGI
[6] = system: MEXF276L and MEXF514L cells; assay: Hsp90 expression in whole cell lysates of 17AAG sensitive and resistant melanoma cell lines; assay type: cell-based, human; details: 17AAG at TGI; responsive MEXF276L, not resistant MEXF514L
Protocol: as §1

MEXF276L xenografts = details: tumor-bearing mice, MEXF276L and MEXF514L, 24, 48, 72 hrs after 60 mg/kg/d
Protocol: Approximately 100 μl blood was available through tail vein puncture, the 72 hr time point was collected by exsanguinations/cardiac puncture.

Hsp90α = details: for plasma Hsp90α at baseline versus after sorafenib alone: day -14 versus day -1, 14 day run in of daily oral sorafenib
Protocol: Human and xenograft plasma samples of 10 μL were added to sample diluent buffer and assayed in duplicate in the antibody-coated 96-well plate. After incubation at room temperature for one hour, wells were washed 6 times with washing buffer. 100 uL HRP conjugate was added to wells and incubated for one hour. Wells were washed 6 times, 100 uL TMB substrate was added to each well, and the plate was incubated for 20 minutes. Absorbance was measured at 450 nm on a plate reader.

MEXF276 xenograft model = details: 60 mg/kg/day i.p. on days 1-5 and 8-12; cited from earlier work

**Q.** Which maximal tolerated dose [1] does the source give for `CN(C)/N=N/c1[nH]cnc1C(N)=O` [DTIC] here?
**A.** 70 mg/kg/day

**Q.** With `COC1=C2C[C@@H](C)C[C@H](OC)[C@H](O)[C@@H](C)/C=C(\C)[C@H](OC(N)=O)[C@@H](OC)/C=C\C=C(/C)C(=O)NC(=CC1=O)C2=O` [Geldanamycin] as the compound, how does the hepatotoxicity [2] read?
**A.** severe hepatotoxicity

**Q.** What does the source list for `C=CCNC1=C2C[C@@H](C)C[C@H](OC)[C@H](O)[C@@H](C)/C=C(\C)[C@H](OC(N)=O)[C@@H](OC)/C=C\C=C(/C)C(=O)NC(=CC1=O)C2=O` [17AAG, 17-allylamino, 17-demethoxygeldanamycin]?
**A.** Hsp90α and Hsp90β detected in the medium (MEXF276L cells [3]): increased detection of Hsp90α but not Hsp90β in the medium; form of extracellular MMP2 (MEXF276L cells [3]): shift of the extracellular localized MMP2 from the fully active 66 kd form to the 72 kd latent form; localization of Hsp90α and Hsp90β (MEXF276L cells [4]): Hsp90α is lost at 2-24 hrs; apoptotic cell debris (sub G1 fraction) compared to control cells (MEXF276L cells [5]): only seen at 48 hrs; cytoplasmic Hsp90 level [6]: loss of cytoplasmic Hsp90; plasma Hsp90α after treatment versus pre 17-AAG (MEXF276L xenografts): increase in plasma Hsp90α in most cases; evidence of clinical response in patients with increase in plasma Hsp90α (Hsp90α; after 17AAG administration, shrinkage in 2/3, CT attenuation consistent with tumor necrosis in 1 of 3): 3/3; induction of plasma Hsp90α, pre (day -1) versus post (72 hrs, day 4) treatment (Hsp90α; cancer patients, p=0.0287): induction is significant; patients with increase in plasma Hsp90α (Hsp90α; day four, 72 hrs after first 17AAG dose, after 14 day sorafenib run in): 3 of 7; growth inhibition compared to control (MEXF276 xenograft model): 92%; time of actual tumor remissions (MEXF276 xenograft model): 10 to 17 days; tolerability (MEXF276 xenograft model): well tolerated (no animal death)

**Q.** Which “plasma Hsp90α at baseline versus after sorafenib alone” value (Hsp90α) does the source give for `CNC(=O)c1cc(Oc2ccc(NC(=O)Nc3ccc(Cl)c(C(F)(F)F)c3)cc2)ccn1` [sorafenib] here?
**A.** little difference in plasma Hsp90α

**Q.** What about the “plasma Hsp90α at baseline versus after sorafenib alone” value (Hsp90α; listed as Bay 43-9006) of the same compound?
**A.** no effects on Hsp90α
